Reference: ChEMBL document CHEMBL2413019, “Structure-activity-relationship studies on dihydrofuran-fused perhydrophenanthrenes as an anti-Alzheimer's disease agent” (Bioorg Med Chem, 2013)
Activity calls are given as the source filed them. The calls are words filed in the database; no cut-off is given here.

How the values were obtained:
[1] = Cytotoxicity against Sprague-Dawley rat cortical neurons assessed as cell viability after 48 hrs by CellTiter-Glo luminescent assay; conditions: cortical neurone
Cortical neurone [2] = test: Antialzheimer activity in amyloid beta (25 to 35)-treated Sprague-Dawley rat cortical neurons assessed as dendrite extension activity at 10 uM after 4 days by fluorescence microscopic analysis; format: functional
Cortical neurone [3] = test: Antialzheimer activity in amyloid beta (25 to 35)-treated Sprague-Dawley rat cortical neurons assessed as dendrite extension activity at 1 uM after 4 days by fluorescence microscopic analysis; format: functional
[4] = Cytotoxicity against Sprague-Dawley rat cortical neurons assessed as cell viability at 1 to 10 uM after 48 hrs by CellTiter-Glo luminescent assay; conditions: cortical neurone

SMILES: C#Cc1cc2c(cc1O)[C@]1(C#N)CC=CC3=CO[C@H](C2)[C@@H]31
- Activity [1]: Dose-dependent effect
- Activity (Cortical neurone [2]): Active
- Activity (Cortical neurone [3]): inactive

SMILES: N#C[C@]12CC=CC3=CO[C@H](Cc4ccc(O)cc41)[C@@H]32
- Activity [1]: Dose-dependent effect

SMILES: N#C[C@]12CCC3(OCCO3)[C@@H]3CO[C@H](Cc4ccc(O)cc41)[C@@H]32
- Activity (Cortical neurone [3]): Active

SMILES: N#C[C@]12CCC3(OCCO3)C3=CO[C@H](Cc4cc(Sc5ccccc5)c(O)cc41)[C@@H]32
- Activity (Cortical neurone [3]): Active

SMILES: Oc1ccc2c(c1)[C@@H]1CCC3(OCCO3)C3=CO[C@H](C2)[C@@H]31
- Activity (Cortical neurone [3]): inactive

SMILES: C#Cc1cc2c(cc1O)[C@]1(C#N)CCC3(OCCO3)C3=CO[C@H](C2)[C@@H]31
- Activity [1]: Dose-dependent effect
- Activity (Cortical neurone [2]): Active
- Activity (Cortical neurone [3]): inactive

SMILES: CCOc1cc2c(cc1O)[C@]1(C#N)CCC3(OCCO3)C3=CO[C@H](C2)[C@@H]31
- Activity (Cortical neurone [3]): Active

SMILES: N#C[C@]12CCC3(OCCO3)C3=CO[C@H](Cc4cc(O)c(O)cc41)[C@@H]32
- Activity (Cortical neurone [3]): inactive

SMILES: N#C[C@]12CC=CC3=CO[C@H](Cc4cc(C#CCCO)c(O)cc41)[C@@H]32
- Activity [1]: Dose-dependent effect
- Activity (Cortical neurone [2]): inactive
- Activity (Cortical neurone [3]): Active

SMILES: N#C[C@]12CCC3(OCCO3)C3=CO[C@H](Cc4ccc(O)cc41)[C@@H]32
- Activity [4]: Non-toxic

SMILES: N#C[C@]12CCC[C@@H]3CO[C@H](Cc4ccc(O)cc41)[C@@H]32
- Activity [1]: Dose-dependent effect
- Activity (Cortical neurone [2]): Active
- Activity (Cortical neurone [3]): inactive

SMILES: CCCCCCCCC/C=C/c1cc2c(cc1O)[C@]1(C#N)CCC3(OCCO3)C3=CO[C@H](C2)[C@@H]31
- Activity [1]: Dose-dependent effect
- Activity (Cortical neurone [2]): inactive
- Activity (Cortical neurone [3]): Active

SMILES: N#C[C@]12CC=CC3=CO[C@H](Cc4cc(-c5ccccc5)c(O)cc41)[C@@H]32
- Activity [1]: Dose-dependent effect

SMILES: N#C[C@]12CC[C@H](O)[C@@H]3CO[C@H](Cc4ccc(O)cc41)[C@@H]32
- Activity [1]: Dose-dependent effect

SMILES: N#C[C@]12CCC3(OCCO3)C3=CO[C@H](Cc4cc(C#CCCO)c(O)cc41)[C@@H]32
- Activity [1]: Dose-dependent effect

SMILES: N#C[C@]12CCC3(OCCO3)C3=CO[C@H](Cc4cc(-c5ccccc5)c(O)cc41)[C@@H]32
- Activity [1]: Dose-dependent effect

SMILES: N#C[C@]12CCC3(OCCO3)C3=CO[C@H](Cc4cc(I)c(O)cc41)[C@@H]32
- Activity [1]: Dose-dependent effect

SMILES: N#C[C@]12CC[C@H](O)C3=CO[C@H](Cc4ccc(O)cc41)[C@@H]32
- Activity [1]: Dose-dependent effect
